One may read the IC50 as the concentration that inhibits the measured activity by half.

The target in assay [1] is T1, Plasmodium falciparum calcium-dependent protein kinase 4 (CDPK4) (Plasmodium falciparum, UniProt Q8IBS5).
T1 construct: 6-Histidine (N); made in house
T1 sequence (Q8IBS5 1-528): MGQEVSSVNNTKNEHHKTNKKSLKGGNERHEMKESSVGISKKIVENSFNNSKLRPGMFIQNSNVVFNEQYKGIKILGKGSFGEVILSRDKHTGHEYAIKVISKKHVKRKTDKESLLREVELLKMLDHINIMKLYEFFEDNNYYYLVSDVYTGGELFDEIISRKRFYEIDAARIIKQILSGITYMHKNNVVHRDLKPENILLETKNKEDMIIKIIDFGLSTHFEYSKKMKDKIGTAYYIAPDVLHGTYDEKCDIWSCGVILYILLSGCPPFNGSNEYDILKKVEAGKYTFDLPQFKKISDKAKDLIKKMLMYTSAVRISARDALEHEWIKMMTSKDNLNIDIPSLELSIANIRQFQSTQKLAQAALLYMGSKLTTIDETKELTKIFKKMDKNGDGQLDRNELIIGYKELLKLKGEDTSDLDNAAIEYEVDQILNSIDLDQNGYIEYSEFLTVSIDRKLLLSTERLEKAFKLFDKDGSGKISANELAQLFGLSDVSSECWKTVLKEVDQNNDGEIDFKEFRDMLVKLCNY
The assay can be described thus: CDPK4 Kinase-Glo ATP-consumption screen and dose-response. The format is biochemical. Conditions: hits below 1 uM. The essentials: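 ATP consumption by recombinant P. falciparum CDPK4 or CDPK1 measured as residual ATP by Kinase-Glo luminescence, with 40 μM Syntide-2 substrate and 90 min incubation stopped with 5 mM EGTA. Single-point screen at 1 μM final, followed by dose-response; no-substrate wells as negative control.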
On the technique in general: Kinase-Glo measures the ATP left after a reaction by luminescence.

The next assay has as its target ABL1 (Homo sapiens, UniProt P00519).
The test system of assay [2] is DD2. Also noted: method as in F.J. Gamo et al., Nature 2010. Conditions: downloaded from ChEMBL, ref F.J. Gamo et al., Nature 2010; cited from earlier work.
The subject of assay [3] is DD2. Also noted: method as in F.J. Gamo et al., Nature 2010. Conditions: P. falciparum Dd2; downloaded from ChEMBL ref F.J. Gamo et al., Nature 2010; cited from earlier work.
For assay [4], the system named is 3D7 PFLDH. Also noted: method as in F.J. Gamo et al., Nature 2010. Conditions: downloaded from ChEMBL ref F.J. Gamo et al., Nature 2010; cited from earlier work.
In the next assay the target is AAK1 (Homo sapiens, UniProt Q2M2I8). Nature of the assay: Kinobead competition assay in K562 extract: AAK1.
Assay [5] has as its system 3D7 PFLDH. Also noted: method as in ChEMBL. Conditions: ref ChEMBL; cited from earlier work.
The mark [6] stands for this setting: AAK1, K-562 extract, conc. series 20.0-0.0uM, channel assignment not given.

Where two headings read alike, the source gives them in different places.

Chain of AAK1 (Q2M2I8 whole entry): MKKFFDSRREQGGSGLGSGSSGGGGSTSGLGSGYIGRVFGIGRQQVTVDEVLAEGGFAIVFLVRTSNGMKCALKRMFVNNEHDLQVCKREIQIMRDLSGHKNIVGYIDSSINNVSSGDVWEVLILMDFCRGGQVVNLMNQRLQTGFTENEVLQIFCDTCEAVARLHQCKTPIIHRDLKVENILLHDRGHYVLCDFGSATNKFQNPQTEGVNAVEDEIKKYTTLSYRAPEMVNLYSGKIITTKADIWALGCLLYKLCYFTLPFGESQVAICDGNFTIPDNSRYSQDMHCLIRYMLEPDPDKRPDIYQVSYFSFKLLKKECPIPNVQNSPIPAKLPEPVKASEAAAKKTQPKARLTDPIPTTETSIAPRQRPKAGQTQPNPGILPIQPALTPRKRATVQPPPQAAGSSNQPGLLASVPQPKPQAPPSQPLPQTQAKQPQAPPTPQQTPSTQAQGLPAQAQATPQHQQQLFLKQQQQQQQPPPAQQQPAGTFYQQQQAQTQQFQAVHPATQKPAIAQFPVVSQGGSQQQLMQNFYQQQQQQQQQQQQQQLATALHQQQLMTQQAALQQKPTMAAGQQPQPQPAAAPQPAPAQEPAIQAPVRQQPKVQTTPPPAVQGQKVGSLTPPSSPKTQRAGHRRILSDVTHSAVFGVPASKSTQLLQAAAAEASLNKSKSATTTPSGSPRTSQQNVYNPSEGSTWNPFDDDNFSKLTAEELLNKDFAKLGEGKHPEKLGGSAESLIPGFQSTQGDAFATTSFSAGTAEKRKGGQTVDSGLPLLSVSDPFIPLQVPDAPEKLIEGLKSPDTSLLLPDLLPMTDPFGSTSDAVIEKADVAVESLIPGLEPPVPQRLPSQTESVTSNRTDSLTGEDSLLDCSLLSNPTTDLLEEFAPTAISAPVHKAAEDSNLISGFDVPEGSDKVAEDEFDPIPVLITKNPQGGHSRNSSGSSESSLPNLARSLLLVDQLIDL
Chain of ABL1 (P00519 whole entry): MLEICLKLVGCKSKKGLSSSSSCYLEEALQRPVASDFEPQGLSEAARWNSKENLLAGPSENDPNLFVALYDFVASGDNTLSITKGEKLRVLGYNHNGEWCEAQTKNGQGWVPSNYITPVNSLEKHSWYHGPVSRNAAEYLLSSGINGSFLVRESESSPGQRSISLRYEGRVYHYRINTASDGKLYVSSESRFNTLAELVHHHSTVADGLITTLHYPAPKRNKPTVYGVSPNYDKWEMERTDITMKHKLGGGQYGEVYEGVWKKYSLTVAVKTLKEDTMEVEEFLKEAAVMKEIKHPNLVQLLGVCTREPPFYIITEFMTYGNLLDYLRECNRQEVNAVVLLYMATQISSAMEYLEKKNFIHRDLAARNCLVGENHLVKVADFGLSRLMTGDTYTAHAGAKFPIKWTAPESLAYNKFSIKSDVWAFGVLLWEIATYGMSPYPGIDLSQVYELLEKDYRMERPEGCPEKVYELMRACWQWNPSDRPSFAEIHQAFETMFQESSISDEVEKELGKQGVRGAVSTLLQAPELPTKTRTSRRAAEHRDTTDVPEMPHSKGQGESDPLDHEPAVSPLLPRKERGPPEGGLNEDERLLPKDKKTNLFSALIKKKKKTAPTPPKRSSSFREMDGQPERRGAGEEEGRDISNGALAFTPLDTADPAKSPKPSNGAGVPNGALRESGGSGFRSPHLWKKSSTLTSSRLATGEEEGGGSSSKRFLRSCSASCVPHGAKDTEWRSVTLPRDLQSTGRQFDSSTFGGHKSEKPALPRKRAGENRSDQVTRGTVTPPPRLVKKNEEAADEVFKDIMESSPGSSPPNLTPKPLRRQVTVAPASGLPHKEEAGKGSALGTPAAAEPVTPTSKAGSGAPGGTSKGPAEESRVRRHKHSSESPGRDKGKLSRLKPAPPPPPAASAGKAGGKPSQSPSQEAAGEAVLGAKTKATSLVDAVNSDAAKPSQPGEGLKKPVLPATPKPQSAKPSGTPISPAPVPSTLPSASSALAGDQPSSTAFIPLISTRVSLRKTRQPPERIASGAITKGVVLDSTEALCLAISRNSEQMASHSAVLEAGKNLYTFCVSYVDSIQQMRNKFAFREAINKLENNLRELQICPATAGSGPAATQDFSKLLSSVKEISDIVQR
Procedure for AAK1: Kinobeads were prepared as described [25, 26]. […] Briefly, Kinobeads were washed and equilibrated in lysis buffer (50 mM Tris-Cl, pH 7.4, 0.4% Igepal-CA630, 1.5 mM MgCl2, 5% Glycerol, 150 mM NaCl, 25 mM NaF, 1 mM Na3VO4, 1 mM DTT, and 1 complete EDTA-free protease inhibitor tablet (Roche) per 25 ml). […] Digestion, labeling with TMT isobaric mass tags, peptide fractionation, and mass spectrometric analyses were performed essentially as described [27]. Criteria for protein quantification were: a minimum of 2 sequence assignments matching to unique peptides was required (FDR for quantified proteins <<0.1%), Mascot ion score > 15, signal to background ratio of the precursor ion > 4, signal to interference > 0.5 [28]. Reporter ion intensities were multiplied by ion accumulation time, yielding an area value proportional to the number of reporter ions present in the mass analyzer. Peptide fold changes were corrected for isotope purity as described and adjusted for interference caused by co-eluting nearly isobaric peaks as estimated by the signal-to-interference measure [29]. Protein quantification was achieved using a sum-based bootstrap algorithm [30]. Apparent dissociation constants were determined by taking into account the protein depletion by the beads as described [27].
Kinobeads were incubated with K562 cell extract either in the presence of vehicle (DMSO) or TCAMS compound, respectively (20 μM-0.03 μM). Protein kinases captured by the beads (140–150 kinases per experiment) were quantified following tryptic digestion, isobaric peptide tagging, and LC-MS/MS analysis. Kinases were identified as potential targets by virtue of their reduced capture in the presence of excess TCAMS compounds. Apparent dissociation constants (Kd’s) were calculated from the extent to which capture of each kinase was reduced at each compound concentration.

On to `CN1CCN(c2ccc(Nc3ncc(C#N)c(Nc4ccccc4C(N)=O)n3)cc2)CC1.Cl` [TCMDC-134116], for which the IC50 in assay [1] worked out at 0.188 µM; on ABL1 it was 0.13 µM. Besides, in the assay on DD2 [2], the PCT_INHB_DD2 is 93%.
Take `Cl.NCC1(c2nc(-c3ccc(Cl)c(O)c3)c(-c3ccncc3)[nH]2)CCCCC1` [TCMDC-141154]: the PCT_INHB_DD2 in the assay on DD2 [3] is 98. Also, in the assay with 3D7 PFLDH [4], the PCT_INHIB_3D7_PFLDH is reported as 0. The IC50 at AAK1 was above 20 µM. The “abundance relative to vehicle TMT126” value at AAK1 (AAK1, K-562 extract, conc. series 20.0, 4.0, 0.8, 0.16, 0.032, 0.0uM, channel assignment not given) was determined as 0.86. On AAK1 (setting [6]), the “abundance relative to vehicle TMT127L” value is given as 0.83, the “abundance relative to vehicle TMT128H” value came out at 0.89, the “abundance relative to vehicle TMT129L” value is 1.02 and the “abundance relative to vehicle TMT130H” value came to 1.01. At AAK1 (AAK1, kinobead competition curve), this compound registered a Hill of 0.56.
In the case of `CN(C)CC(O)COc1ccc(Nc2ncc([N+](=O)[O-])c(Nc3ccccc3O)n2)cc1.O=C(O)C(F)(F)F` (stereo not shown) [TCMDC-141399], the PCT_INHIB_3D7_PFLDH with 3D7 PFLDH [5] was 0.

The record behind these values is paper PMC4774911, “Biochemical Screening of Five Protein Kinases from Plasmodium falciparum against 14,000 Cell-Active Compounds” (PLoS ONE, 2016).
